In patent US20220111056A1, “DRUG-LOADED EMULSION” (ZHEJIANG ZHIDA PHARMACEUTICAL CO., LTD., priority 2019, published 2022):

Type: physicochemical
Protocol: The specific experimental method was as follows. […] The chloroform solution was mixed with 0.5 ml of chloroform, from which 0.5 ml of diluent was taken and two-fold serial dilution was performed by using chloroform. Then 0.5 ml of a chloroform solution of paclitaxel (10 mg/ml) was added to the above-mentioned sample after the two-fold serial dilution, and then left in a hood to be naturally volatilized overnight. Crystal formation in the dried sample was observed and recorded.

**Q.** For castor oil, which “solubility of paclitaxel (crystal formation)” value is on record?
**A.** The value was “+”.
